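Five concentrations, 48 hours, 96-well plates. TGI: total growth inhibition.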
Legend:
Assay in all cases: NCI tumour cell line growth inhibition, 48 h
DU-145 prostate = tested on: DU-145 prostate
NCI-H460 lung = tested on: NCI-H460 lung
HOP-62 NSCLC = tested on: HOP-62 NSCLC
SK-OV-3 ovarian = tested on: SK-OV-3 ovarian
NCI/ADR-RES ovarian = tested on: NCI/ADR-RES ovarian
COLO 205 colon = tested on: COLO 205 colon
U251 CNS = tested on: U251 CNS
HL-60(TB) leukemia = tested on: HL-60(TB) leukemia
UACC-62 melanoma = tested on: UACC-62 melanoma
A549 NSCLC = tested on: A549 NSCLC
SK-MEL-28 melanoma = tested on: SK-MEL-28 melanoma
K-562 leukemia = tested on: K-562 leukemia
MDA-MB-231 breast = tested on: MDA-MB-231 breast
MDA-N = tested on: MDA-N
HS 578T breast = tested on: HS 578T breast
SW-620 colon = tested on: SW-620 colon
NCI-H23 lung = tested on: NCI-H23 lung
MALME-3M melanoma = tested on: MALME-3M melanoma
SK-MEL-5 melanoma = tested on: SK-MEL-5 melanoma
IGROV1 ovarian = tested on: IGROV1 ovarian
NCI-H226 lung = tested on: NCI-H226 lung
MOLT-4 leukemia = tested on: MOLT-4 leukemia
SR leukemia = tested on: SR leukemia
SF-539 CNS = tested on: SF-539 CNS
BT-549 breast = tested on: BT-549 breast
HT29 colon = tested on: HT29 colon
HCT-15 colon = tested on: HCT-15 colon
HCT-116 colon = tested on: HCT-116 colon
CCRF-CEM leukemia = tested on: CCRF-CEM leukemia
SK-MEL-2 melanoma = tested on: SK-MEL-2 melanoma
SN12C renal = tested on: SN12C renal
MDA-MB-435 = tested on: MDA-MB-435
A498 renal = tested on: A498 renal
SF-268 CNS = tested on: SF-268 CNS
RPMI-8226 leukemia = tested on: RPMI-8226 leukemia
LOX IMVI melanoma = tested on: LOX IMVI melanoma
RXF 393 renal = tested on: RXF 393 renal
HOP-92 NSCLC = tested on: HOP-92 NSCLC
PC-3 prostate = tested on: PC-3 prostate
OVCAR-4 ovarian = tested on: OVCAR-4 ovarian
SNB-19 CNS = tested on: SNB-19 CNS
786-0 renal = tested on: 786-0 renal
TK-10 renal = tested on: TK-10 renal
KM12 colon = tested on: KM12 colon
M14 melanoma = tested on: M14 melanoma
MCF7 breast = tested on: MCF7 breast
OVCAR-3 ovarian = tested on: OVCAR-3 ovarian
CAKI-1 renal = tested on: CAKI-1 renal
OVCAR-8 ovarian = tested on: OVCAR-8 ovarian
T-47D breast = tested on: T-47D breast
UACC-257 melanoma = tested on: UACC-257 melanoma
UO-31 renal = tested on: UO-31 renal
HCC-2998 colon = tested on: HCC-2998 colon
SNB-75 CNS = tested on: SNB-75 CNS
ACHN renal = tested on: ACHN renal
OVCAR-5 ovarian = tested on: OVCAR-5 ovarian

With `CC1(C)Cc2c(sc3[nH]c(=S)[nH]c(=S)c23)CS1` as the compound, how does the TGI (DU-145 prostate) read?
The TGI was greater than 100 µM.

What about the TGI (NCI-H460 lung) of the same compound?
Its TGI is greater than 100 µM.

And the TGI (HOP-62 NSCLC)?
The TGI was greater than 100 µM.

And the TGI (SK-OV-3 ovarian)?
Its TGI is 99.7 µM.

And the TGI (NCI/ADR-RES ovarian)?
Its TGI is greater than 100 µM.

What about the TGI (COLO 205 colon) of the same compound?
The TGI was greater than 100 µM.

And the TGI (U251 CNS)?
The TGI was greater than 100 µM.

And the TGI (HL-60(TB) leukemia)?
The TGI was 92.7 µM.

And the TGI (UACC-62 melanoma)?
The TGI was 67.4 µM.

What about the TGI (A549 NSCLC) of the same compound?
Its TGI is greater than 100 µM.

What about the TGI (SK-MEL-28 melanoma) of the same compound?
The TGI was greater than 100 µM.

And the TGI (K-562 leukemia)?
The TGI was greater than 100 µM.

And the TGI (MDA-MB-231 breast)?
The TGI was greater than 100 µM.

And the TGI (MDA-N)?
The TGI was greater than 100 µM.

What about the TGI (HS 578T breast) of the same compound?
The TGI was greater than 100 µM.

What about the TGI (SW-620 colon) of the same compound?
The TGI was greater than 100 µM.

And the TGI (NCI-H23 lung)?
The TGI was greater than 100 µM.

And the TGI (MALME-3M melanoma)?
The TGI was 75.6 µM.

And the TGI (SK-MEL-5 melanoma)?
Its TGI is greater than 100 µM.

And the TGI (IGROV1 ovarian)?
Its TGI is greater than 100 µM.

And the TGI (NCI-H226 lung)?
The TGI was greater than 100 µM.

What about the TGI (MOLT-4 leukemia) of the same compound?
Its TGI is greater than 100 µM.

And the TGI (SR leukemia)?
The TGI was greater than 100 µM.

And the TGI (SF-539 CNS)?
The TGI was greater than 100 µM.

What about the TGI (BT-549 breast) of the same compound?
Its TGI is greater than 100 µM.

What about the TGI (HT29 colon) of the same compound?
The TGI was greater than 100 µM.

What about the TGI (HCT-15 colon) of the same compound?
The TGI was greater than 100 µM.

What about the TGI (HCT-116 colon) of the same compound?
Its TGI is greater than 100 µM.

And the TGI (CCRF-CEM leukemia)?
Its TGI is greater than 100 µM.

And the TGI (SK-MEL-2 melanoma)?
Its TGI is greater than 100 µM.

What about the TGI (SN12C renal) of the same compound?
Its TGI is greater than 100 µM.

What about the TGI (MDA-MB-435) of the same compound?
The TGI was greater than 100 µM.

And the TGI (A498 renal)?
The TGI was greater than 100 µM.

What about the TGI (SF-268 CNS) of the same compound?
The TGI was greater than 100 µM.

What about the TGI (RPMI-8226 leukemia) of the same compound?
Its TGI is 68.5 µM.

What about the TGI (LOX IMVI melanoma) of the same compound?
Its TGI is greater than 100 µM.

And the TGI (RXF 393 renal)?
The TGI was greater than 100 µM.

What about the TGI (HOP-92 NSCLC) of the same compound?
Its TGI is 50.4 µM.

What about the TGI (PC-3 prostate) of the same compound?
The TGI was greater than 100 µM.

And the TGI (OVCAR-4 ovarian)?
The TGI was 65.8 µM.

And the TGI (SNB-19 CNS)?
The TGI was greater than 100 µM.

What about the TGI (786-0 renal) of the same compound?
Its TGI is greater than 100 µM.

And the TGI (TK-10 renal)?
Its TGI is greater than 100 µM.

What about the TGI (KM12 colon) of the same compound?
Its TGI is greater than 100 µM.

And the TGI (M14 melanoma)?
The TGI was greater than 100 µM.

What about the TGI (MCF7 breast) of the same compound?
Its TGI is greater than 100 µM.

What about the TGI (OVCAR-3 ovarian) of the same compound?
The TGI was 82.9 µM.

And the TGI (CAKI-1 renal)?
The TGI was greater than 100 µM.

And the TGI (OVCAR-8 ovarian)?
Its TGI is greater than 100 µM.

What about the TGI (T-47D breast) of the same compound?
The TGI was 61.4 µM.

And the TGI (UACC-257 melanoma)?
Its TGI is 73.8 µM.

And the TGI (UO-31 renal)?
Its TGI is greater than 100 µM.

What does the source list for `N=c1oc2ccccc2cc1C(=O)Nc1cccc2ccccc12`?
TGI (DU-145 prostate): > 100 µM; TGI (NCI-H460 lung): > 100 µM; TGI (HOP-62 NSCLC): > 100 µM; TGI (SK-OV-3 ovarian): > 100 µM; TGI (HCC-2998 colon): > 100 µM; TGI (NCI/ADR-RES ovarian): > 100 µM; TGI (COLO 205 colon): > 100 µM; TGI (U251 CNS): > 100 µM; TGI (HL-60(TB) leukemia): > 100 µM; TGI (UACC-62 melanoma): > 100 µM; TGI (A549 NSCLC): > 100 µM; TGI (SK-MEL-28 melanoma): > 100 µM; TGI (K-562 leukemia): > 100 µM; TGI (MDA-MB-231 breast): > 100 µM; TGI (MDA-N): > 100 µM; TGI (HS 578T breast): > 100 µM; TGI (SW-620 colon): > 100 µM; TGI (NCI-H23 lung): > 100 µM; TGI (MALME-3M melanoma): > 100 µM; TGI (SK-MEL-5 melanoma): > 100 µM; TGI (IGROV1 ovarian): > 100 µM; TGI (NCI-H226 lung): > 100 µM; TGI (SNB-75 CNS): > 100 µM; TGI (MOLT-4 leukemia): > 100 µM; TGI (SR leukemia): > 100 µM; TGI (SF-539 CNS): > 100 µM; TGI (BT-549 breast): > 100 µM; TGI (HT29 colon): > 100 µM; TGI (HCT-15 colon): > 100 µM; TGI (HCT-116 colon): > 100 µM; TGI (CCRF-CEM leukemia): > 100 µM; TGI (SK-MEL-2 melanoma): > 100 µM; TGI (SN12C renal): > 100 µM; TGI (MDA-MB-435): > 100 µM; TGI (A498 renal): > 100 µM; TGI (SF-268 CNS): > 100 µM; TGI (RPMI-8226 leukemia): > 100 µM; TGI (LOX IMVI melanoma): > 100 µM; TGI (RXF 393 renal): > 100 µM; TGI (ACHN renal): > 100 µM; TGI (HOP-92 NSCLC): > 100 µM; TGI (PC-3 prostate): > 100 µM; TGI (OVCAR-4 ovarian): > 100 µM; TGI (SNB-19 CNS): > 100 µM; TGI (786-0 renal): > 100 µM; TGI (KM12 colon): > 100 µM; TGI (M14 melanoma): > 100 µM; TGI (MCF7 breast): > 100 µM; TGI (OVCAR-3 ovarian): > 100 µM; TGI (CAKI-1 renal): > 100 µM; TGI (OVCAR-8 ovarian): > 100 µM; TGI (T-47D breast): > 100 µM; TGI (OVCAR-5 ovarian): > 100 µM; TGI (UACC-257 melanoma): > 100 µM
